Results reported in patent publication US20200008395A1, “METHOD OF USING HUMAN EXCREMENT AND SECRETIONS FOR EARLY DETECTION OF PARKINSON'S DISEASE” (NEURRX, SPC, priority 2017, published 2020).

Assays:
[1] = supplements / pharmaceuticals said to have been shown to slow or reduce progression; cited from earlier work
[2] = Regression model of nutritional supplements and PD progression (PRO-PD score); type: in vivo, human; conditions: positive report of consistently using supplement over the previous 6 months, adjusted for years since diagnosis; for Mean change in PRO-PD score (SE)*: age, and gender; for Mean change in PRO-PD score (SE)**: age, gender, and income
From the text: When the diagnosis comes 10-15 years or more into the disease, the contribution or effectiveness of a disease-modifying therapy is diminished. Conversely, early detection and intervention by disease-modifying therapies can reduce rate of PD progression or delay disease onset. […] As used herein, PRO-PD is the Patient Reported Outcomes in Parkinson's Disease rating scale, which is used to describe PD disease severity among individuals with a clinical diagnosis of PD.
Certain foods and supplements are known to be associated with different rates of PD progression.

Compound	Effect on PD progression (statement in words) [1]	Mean change in PRO-PD score (SE)* [2]	Mean change in PRO-PD score (SE)** [2]
N[C@@H](Cc1ccc(O)c(O)c1)C(=O)O [levodopa]	reduce the rate of progression	–	–
NC(=O)C1=CN([C@@H]2O[C@H](COP(=O)(O)OP(=O)(O)OC[C@H]3O[C@@H](n4cnc5c(N)ncnc54)[C@H](O)[C@@H]3O)[C@@H](O)[C@H]2O)C=CC1 [NADH]	–	−9.7	−25.2
[Ca+2] [Calcium]	–	−6.2	12.5
N[C@@H](CCC(=O)N[C@@H](CS)C(=O)NCC(=O)O)C(=O)O [Glutathione, oral, glutathione]	slow the progression of PD	–	–
C#CCN[C@@H]1CCc2ccccc21 [rasagiline]	reduce the rate of progression	–	–
COC1=C(OC)C(=O)C(C/C=C(\C)CC/C=C(\C)CC/C=C(\C)CC/C=C(\C)CC/C=C(\C)CC/C=C(\C)CC/C=C(\C)CC/C=C(\C)CC/C=C(\C)CCC=C(C)C)=C(C)C1=O [CoQ10, coenzyme Q-10]	slow the progression of PD	–	–
Vitamin D	–	−26.1	−3.6
C[C@]12CC[C@H](O)CC1=CC[C@@H]1[C@@H]2CC[C@]2(C)C(=O)CC[C@@H]12 [DHEA, dehydroepiandrosterone]	slow the progression of PD	–	–
C#CCN(C)[C@H](C)Cc1ccccc1 [selegeline]	reduce the rate of progression	–	–
O=C1CC[C@@]2(O)[C@H]3Cc4ccc(O)c5c4[C@@]2(CCN3CC2CC2)[C@H]1O5 [Low-dose naltrexone, naltrexone]	reduce the rate of progression	–	–
CN1c2c(nc(N)[nH]c2=O)NCC1CNc1ccc(C(=O)N[C@@H](CCC(=O)O)C(=O)O)cc1 (stereo partly drawn) [5-Methyltetrahydrofolate (5-MTHF), 5-Methyltetrahydrofolate]	–	−17.1	−25.1
